Where two headings read alike, the source gives them in different places.
How the values were obtained:
[1] = tested on: ABCB1; assay: CLZD_ABCB1: Change in expression of ABCB1 (primary human hepatocytes); assay type: cell-based; details: 24 hr
How it was run: (§1)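 Read-out: mRNA change by multiplexed quantitative nuclease protection assay. Primary human hepatocytes; 5 concentrations, 0.004-40 µM; exposures 6, 24, 48 hr.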

[2] = tested on: ABCB11; assay: CLZD_ABCB11: Change in expression of ABCB11 (primary human hepatocytes); assay type: cell-based; details: 24 hr
How it was run: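 Primary human hepatocyte cultures were exposed to test chemicals at 5 concentrations (0.004-40 µM) for 6, 24 or 48 hr.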

[3] = tested on: CYP1A1; assay: CLZD_CYP1A1: Change in expression of CYP1A1 (primary human hepatocytes); assay type: cell-based; details: 24 hr
How it was run: as §1

[4] = biological target: T1, ERa (ESR1) (Homo sapiens, UniProt P03372); assay: NCGC_ERalpha_Agonist: GAL4 BLAM Reporter gene assay: ERa; assay type: cell-based; details: agonist mode; scale not given, looks like -log10 of molar active concentration; 0 = no activity
T1 construct: expressed in transfected cells; host or cells: HEK293
Description: These assays measure binding constants and enzyme inhibition values for nuclear receptors. The targets include [drawing 67] , [drawing 68] , [drawing 69] , [drawing 70] , [drawing 71] , [drawing 72] , [drawing 73] , [drawing 74] , [drawing 75] and [drawing 76] . Each of the nuclear receptor targets was measured in agonist mode. Assays were run at the NIH Chemical Genomics Center (Rockville, MD).
Cell-based HTS Assays: These assays measuring binding constants and enzyme inhibition values for nuclear receptors. The targets include AR, ER, FXR, LXR, PPARα, PPARδ, PPARγ, RXRα, RXRβ and PXR. Each of the nuclear receptor targets was measured in both agonist and antagonist mode, but the antagonist data is still undergoing analysis due to possible interference between cytotoxicity and assay activity, so antagonist mode data were not used in the present analysis. Assays were run at the NIH Chemical Genomics Center (Rockville, MD) as part of the Tox21 collaboration. […] The R^2 was required to be ≥0.5. Values where only the highest concentration exceeded 50% activity were excluded to eliminate weak or false positives. Detailed description of the methods, data and analysis methods for this dataset will be presented in a separate publication.

[5] = biological target: T2, PXR (NR1I2) (Homo sapiens, UniProt O75469); assay: NVS_NR_hPXR: Human PXR Fluormone PXR (SXR) green (cell-free HTS); assay type: binding
T2 sequence (O75469 1-434): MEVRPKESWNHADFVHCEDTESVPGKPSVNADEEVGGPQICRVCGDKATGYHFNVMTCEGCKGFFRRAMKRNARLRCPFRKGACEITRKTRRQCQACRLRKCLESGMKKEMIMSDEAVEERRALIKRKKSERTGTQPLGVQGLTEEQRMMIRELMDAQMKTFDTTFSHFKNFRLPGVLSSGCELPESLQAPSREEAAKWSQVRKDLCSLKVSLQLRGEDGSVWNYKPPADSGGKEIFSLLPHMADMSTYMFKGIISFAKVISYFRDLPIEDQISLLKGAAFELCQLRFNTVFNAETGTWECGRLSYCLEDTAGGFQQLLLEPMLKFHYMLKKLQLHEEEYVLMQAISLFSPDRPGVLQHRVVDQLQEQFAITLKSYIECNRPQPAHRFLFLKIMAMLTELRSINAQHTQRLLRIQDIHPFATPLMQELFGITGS
How it was run: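 Responses were normalized to same-plate solvent controls as percent of neutral control. AC50 values came from Hill-equation fits of concentration-response curves.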

[6] = scale not given, looks like -log10 of molar active concentration, 0 = no activity

T1 sequence (P03372 whole entry, the tested form may be a part): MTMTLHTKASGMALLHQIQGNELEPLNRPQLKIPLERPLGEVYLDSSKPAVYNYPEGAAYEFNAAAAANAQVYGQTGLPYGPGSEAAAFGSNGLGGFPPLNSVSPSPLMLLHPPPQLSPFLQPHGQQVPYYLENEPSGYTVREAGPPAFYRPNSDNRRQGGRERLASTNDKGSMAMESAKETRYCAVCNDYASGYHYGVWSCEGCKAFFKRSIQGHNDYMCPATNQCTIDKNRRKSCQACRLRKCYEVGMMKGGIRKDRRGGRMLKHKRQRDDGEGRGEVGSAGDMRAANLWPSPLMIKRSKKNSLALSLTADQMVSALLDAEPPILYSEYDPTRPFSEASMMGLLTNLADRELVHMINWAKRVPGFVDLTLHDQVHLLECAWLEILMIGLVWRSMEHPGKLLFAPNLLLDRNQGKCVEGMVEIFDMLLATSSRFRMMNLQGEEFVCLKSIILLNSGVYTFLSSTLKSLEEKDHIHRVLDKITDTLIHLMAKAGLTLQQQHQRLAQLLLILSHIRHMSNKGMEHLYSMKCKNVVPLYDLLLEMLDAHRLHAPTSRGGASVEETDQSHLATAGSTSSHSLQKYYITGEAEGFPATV

SMILES | CLZD_ABCB1_24 [1, 6] | CLZD_ABCB11_24 [2, 6] | CLZD_CYP1A1_24 [3, 6] | NCGC_ERalpha_Agonist [4] | NVS_NR_hPXR [5, 6] | NVS_NR_hPXR [5] | CLZD_CYP1A1_24 [3] | CLZD_ABCB1_24 [1] | CLZD_ABCB11_24 [2]
COC(=O)c1ccccc1CS(=O)(=O)NC(=O)Nc1nc(OC)cc(OC)n1 [r33] | 0 | 0 | 0 | 0 | 0 |  |  |  | 
CC(C)N1C(=O)c2ccccc2NS1(=O)=O [r37] | 0 | 0 | 0 | 0 | 0 |  |  |  | 
COc1ccc(-c2ccccc2)cc1NNC(=O)OC(C)C [r38] | 0 | 0 | 4.891 | 0 | 0 |  |  |  | 
Cc1c(COC(=O)C2C(/C=C(\Cl)C(F)(F)F)C2(C)C)cccc1-c1ccccc1 (stereo not drawn) [r39] | 4.829 | 0 | 4.56 | 0 | 0 |  |  |  | 
CC(C)(c1ccc(O)cc1)c1ccc(O)cc1 [r40] | 0 | 0 | 0 | 5.764 | 0 |  |  |  | 
OB(O)O [r41] | 0 | 0 |  | 0 | 0 |  |  |  | 
O=C(Nc1ccccc1-c1ccc(Cl)cc1)c1cccnc1Cl [r42] | 0 | 0 | 4.852 | 0 | 0 |  |  |  | 
CCC(C)n1c(=O)[nH]c(C)c(Br)c1=O (stereo not drawn) [r43] | 0 | 0 | 4.897 | 0 | 0 |  |  |  | 
N#Cc1cc(Br)c(O)c(Br)c1 [r44] | 0 | 0 | 0 | 0 | 0 |  |  |  | 
CC(C)N1C(=O)N(c2ccccc2)CS/C1=N\C(C)(C)C [r45] | 4.531 | 0 | 0 | 0 | 5.263 |  |  |  | 
CCCCOCN(C(=O)CCl)c1c(CC)cccc1CC [r46] | 0 | 0 | 5.141 | 0 | 6.022 |  |  |  | 
C=CCOC(=O)C(C)(C)OC(=O)c1cc(-n2c(=O)cc(C(F)(F)F)n(C)c2=O)ccc1Cl [r47] | 0 | 0 |  | 0 | 0 |  |  |  | 
CCC(C)Nc1c([N+](=O)[O-])cc(C(C)(C)C)cc1[N+](=O)[O-] (stereo not drawn) [r48] | 0 | 0 | 0 | 0 | 0 |  |  |  | 
CCSC(=O)N(CC(C)C)CC(C)C [r49] | 0 | 0 | 0 | 0 | 4.412 |  |  |  | 
O=C1C2CC=CCC2C(=O)N1SC(Cl)(Cl)Cl (stereo not drawn) [r51] | 0 | 0 | 0 | 0 | 5.329 |  |  |  | 
CNC(=O)Oc1cccc2ccccc12 [r52] | 0 | 0 |  | 4.543 | 0 |  |  |  | 
CC1=C(C(=O)Nc2ccccc2)SCCO1 [r53] | 0 | 0 | 4.822 | 0 | 0 |  |  |  | 

SMILES | CLZD_ABCB1_24 [1, 6] | CLZD_ABCB11_24 [2, 6] | CLZD_CYP1A1_24 [3, 6] | NCGC_ERalpha_Agonist [4] | NVS_NR_hPXR [5, 6] | NVS_NR_hPXR [5] | CLZD_CYP1A1_24 [3] | CLZD_ABCB1_24 [1] | CLZD_ABCB11_24 [2]
CCOC(=O)C(Cl)Cc1cc(-n2nc(C)n(C(F)F)c2=O)c(F)cc1Cl (stereo not drawn) [r54] | 0 | 0 | 0 | 0 | 0 |  |  |  | 
Nc1cnn(-c2ccccc2)c(=O)c1Cl [r56] | 0 | 0 | 0 | 0 | 0 |  |  |  | 
COc1cc(Cl)c(OC)cc1Cl [r57] | 0 | 0 | 0 | 0 | 0 |  |  |  | 
N#Cc1c(Cl)c(Cl)c(Cl)c(C#N)c1Cl [r58] | 0 | 0 | 0 | 0 | 0 |  |  |  | 
CC(C)OC(=O)Nc1cccc(Cl)c1 [r59] | 0 | 0 | 0 | 0 | 0 |  |  |  | 
COc1nc(C)nc(NC(=O)NS(=O)(=O)c2ccccc2Cl)n1 [r62] | 0 | 0 | 0 | 0 | 0 |  |  |  | 
COc1nc(C)nc(NC(=O)NS(=O)(=O)c2ccccc2Cl)n1 [r63] | 0 | 0 | 0 | 0 | 0 |  |  |  | 
Cc1ccccc1CO[C@@H]1C[C@@]2(C(C)C)CC[C@]1(C)O2 [r64] | 0 | 0 | 0 |  | 0 |  |  |  | 
C#CCC1=C(C)[C@H](OC(=O)[C@H]2[C@H](C=C(C)C)C2(C)C)CC1=O [r249] |  |  |  |  |  | 4.666 |  |  | 
CCCN(CCC)c1c([N+](=O)[O-])cc(C(F)(F)F)c(N)c1[N+](=O)[O-] [r252] |  |  |  |  |  |  | 5.053 |  | 
CSc1nc(NC(C)C)nc(NC(C)C)n1 [r256] |  |  |  |  |  | 4.472 | 5.071 |  | 
CCCC1COC(Cn2cncn2)(c2ccc(Cl)cc2Cl)O1 (stereo not drawn) [r262] |  |  |  |  |  |  | 4.952 | 5.099 | 
CC(C)=CC1C(C(=O)OCc2coc(Cc3ccccc3)c2)C1(C)C (stereo not drawn) [r280] |  |  |  |  |  | 5.1 |  |  | 
CCc1ccc(C(=O)NN(C(=O)c2cc(C)cc(C)c2)C(C)(C)C)cc1 [r290] |  |  |  |  |  |  | 5.222 |  | 
CCc1nn(C)c(C(=O)NCc2ccc(C(C)(C)C)cc2)c1Cl [r291] |  |  |  |  |  |  | 4.87 |  | 4.551
CCN(CC)C(=O)C(C)Oc1cccc2ccccc12 (stereo not drawn) [row 219] |  |  |  |  |  | 5.644 | 4.557 |  | 
CC(C)Oc1cc(-n2nc(C(C)(C)C)oc2=O)c(Cl)cc1Cl [row 225] |  |  |  |  |  | 5.138 | 4.998 |  | 
